The text below walks through data of PubChem BioAssay (NCI).

Among the test systems are 786-0 renal; SN12C renal; KM12 colon; HOP-62 NSCLC; NCI-H522 lung; MDA-MB-435; HOP-92 NSCLC; K-562 leukemia; OVCAR-4 ovarian; SK-MEL-28 melanoma.
Assay in all cases: NCI tumour cell line growth inhibition, 48 h

Values joined by “and” are separate entries in the source; they are usually repeats but may differ in a detail not shown here. Identical values can stand only once.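 Dose response: 5 concentrations. Exposure: 48 h. Format: 96-well plates. Endpoint: linear interpolation; highest concentration if not reached. GI50: concentration for 50% inhibition of growth. TGI: concentration producing complete growth inhibition.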

As to `CS(=O)(=O)c1cc(=O)c2ccccc2s1`, the TGI in the test on 786-0 renal stood at 13 µM; with SN12C renal, 22.2 µM; with KM12 colon it was 32.3 µM; with HOP-62 NSCLC, 41.3 µM; in the test on NCI-H522 lung, 3.32 µM; with MDA-MB-435 it was 24.8 µM. For the same molecule, the TGI in the test with HOP-92 NSCLC is 3.71 µM; in the test with K-562 leukemia, 3 µM; in the test with OVCAR-4 ovarian it was 7.8 µM; in the test on SK-MEL-28 melanoma, 7.5 µM.

Take `O=C(/C(=C/c1cccc([N+](=O)[O-])c1)c1ccccc1)c1ccccc1`: the GI50 is 4800 nM in the test with 786-0 renal; 3540 nM in the test with SN12C renal; 3700 nM in the test on KM12 colon; 2870 nM in the test on HOP-62 NSCLC; 1910 nM in the test on NCI-H522 lung; 1960 nM in the test on MDA-MB-435. Besides, the GI50 in the test on HOP-92 NSCLC is 1970 nM; with K-562 leukemia, 3270 nM; in the test on OVCAR-4 ovarian, 4.26 µM; with SK-MEL-28 melanoma it was 2840 nM. Besides, the TGI in the test with 786-0 renal was determined as 18.3 µM; in the test with SN12C renal, 79.8 µM; in the test on KM12 colon, 13.1 µM; in the test on HOP-62 NSCLC it was 7.56 µM; in the test on NCI-H522 lung it was 3.77 µM; in the test with MDA-MB-435, 4.43 µM. Also, the TGI in the test with HOP-92 NSCLC worked out at 6.95 µM; with K-562 leukemia it was 15.7 µM; in the test on OVCAR-4 ovarian it was 16 µM; in the test with SK-MEL-28 melanoma it was 8.97 µM.

For the molecule `c1cc2c(ncc3cscc32)s1`, the TGI in the test with 786-0 renal, in the test on SN12C renal, in the test on KM12 colon, in the test with HOP-62 NSCLC, with NCI-H522 lung and in the test on MDA-MB-435 was more than 100 µM each time. Moreover, the TGI in the test with HOP-92 NSCLC, with K-562 leukemia, in the test on OVCAR-4 ovarian and with SK-MEL-28 melanoma was more than 100 µM in each case.

Take `C=C1CC[C@@H]2[C@](C)(COC(C)=O)[C@H](OC(C)=O)CC[C@@]2(C)[C@@H]1CC(Nc1ccc(S(=O)(=O)Nc2ncccn2)cc1)C1=CCOC1=O` (some centres not stated): the GI50 in the test with 786-0 renal was 1770 nM; in the test on SN12C renal it was 430 nM; in the test with KM12 colon, 2330 nM; in the test with HOP-62 NSCLC it was 3020 nM; in the test on NCI-H522 lung, 498 nM; in the test with MDA-MB-435 it was 1580 nM. The GI50 in the test on HOP-92 NSCLC was 3100 nM; in the test with K-562 leukemia it was 1730 nM; in the test on OVCAR-4 ovarian, 1.85 µM; in the test with SK-MEL-28 melanoma, 1690 nM. In addition, the TGI with 786-0 renal stood at 3.39 µM; in the test on SN12C renal, 1.96 µM; in the test on KM12 colon, 5.54 µM; in the test on HOP-62 NSCLC it was 6.44 µM; in the test on NCI-H522 lung, 2.07 µM; in the test on MDA-MB-435 it was 3.77 µM. Also, the TGI is 8.85 µM in the test on HOP-92 NSCLC, 11.7 µM with K-562 leukemia, 5.26 µM with OVCAR-4 ovarian and 3.24 µM in the test with SK-MEL-28 melanoma.

Take `Cn1cnc([N+](=O)[O-])c1[Se]c1nc(N)nc2c1ncn2C1OC(CO)C(O)C1O` (configuration not stated): the TGI in the test on 786-0 renal, in the test with SN12C renal, in the test with KM12 colon, in the test with HOP-62 NSCLC, with NCI-H522 lung and with MDA-MB-435 was more than 100 µM throughout. The TGI in the test on HOP-92 NSCLC, with K-562 leukemia, in the test with OVCAR-4 ovarian and in the test on SK-MEL-28 melanoma was more than 100 µM in each case.

With `CC(C)CCCC(=O)CCCCCCC(=O)CCN(O)C(=O)C(N)CO` (configuration not stated), the TGI with 786-0 renal was 36.2 µM; in the test on SN12C renal, 43 µM; in the test with KM12 colon, 35.9 µM; in the test on HOP-62 NSCLC it was 40.8 µM; with MDA-MB-435, 83.6 µM; in the test with K-562 leukemia, more than 100 µM. Besides, the TGI with SK-MEL-28 melanoma amounted to 41.5 µM.

As to `C=C[C@H]1C[C@@H]2C[C@@H]3[C@H]4C/C=C\C(=O)NCCCC5NC(=O)C(=C(O)/C=C/[C@@H]4CC(=O)[C@H]3[C@@H]2[C@H]1C)C5=O` (some centres not stated), the GI50 with 786-0 renal is 173 nM; in the test on SN12C renal, 182 nM; in the test with KM12 colon, 1740 nM; with HOP-62 NSCLC it was 165 nM; in the test on MDA-MB-435 it was 203 nM; in the test with HOP-92 NSCLC it was 218 nM. The GI50 is 0.21 µM in the test with OVCAR-4 ovarian and 203 nM with SK-MEL-28 melanoma. The TGI turned out to be 0.329 µM with 786-0 renal; 0.342 µM with SN12C renal; 3.33 µM in the test on KM12 colon; 0.31 µM in the test on HOP-62 NSCLC; 0.408 µM in the test on MDA-MB-435; 0.539 µM in the test on HOP-92 NSCLC. Moreover, the TGI with OVCAR-4 ovarian was determined as 0.413 µM; in the test on SK-MEL-28 melanoma, 0.399 µM.

On to `NCCCn1c2c(c3ccc([N+](=O)[O-])cc3c1=O)C(=O)c1cc(Br)ccc1-2`, for which the GI50 in the test with 786-0 renal was 43.5 nM and 64.3 nM; in the test with SN12C renal, 15.4 nM; in the test on KM12 colon, 83.4 nM and 18.5 nM; in the test with HOP-62 NSCLC it was 34 nM and 32.9 nM; in the test with NCI-H522 lung, 290 nM; with MDA-MB-435, 267 nM and 162 nM. For the same molecule, the GI50 with K-562 leukemia is 8.13 nM; in the test on OVCAR-4 ovarian it was 0.102 µM; in the test on SK-MEL-28 melanoma it was 71.5 nM. The TGI in the test with 786-0 renal was 0.173 µM and 0.387 µM; in the test with SN12C renal, 0.0566 µM; in the test on KM12 colon, 0.353 µM and 0.191 µM; in the test with HOP-62 NSCLC it was 0.171 µM and 0.388 µM; in the test on MDA-MB-435, 1.36 µM; in the test with K-562 leukemia, 0.264 µM.

As for `Cc1ccc(NC(=O)NCCCOc2ccc(N3C(N)=NC(N)=NC3(C)C)cc2Cl)cc1S(=O)(=O)F`, the GI50 is 7360 nM in the test with 786-0 renal; 6290 nM in the test on KM12 colon; 9460 nM in the test on HOP-62 NSCLC; 4460 nM with MDA-MB-435; 18900 nM in the test with HOP-92 NSCLC; 677 nM with K-562 leukemia. Further, the results for the GI50 in the test on OVCAR-4 ovarian and in the test on SK-MEL-28 melanoma were 15.1 µM and 11600 nM, respectively. Further, the TGI in the test with 786-0 renal was more than 100 µM; with KM12 colon, more than 100 µM; in the test with HOP-62 NSCLC, more than 100 µM; in the test on MDA-MB-435 it was more than 100 µM; with HOP-92 NSCLC it was 75.1 µM; in the test with K-562 leukemia, more than 100 µM. In addition, the TGI in the test on OVCAR-4 ovarian and with SK-MEL-28 melanoma was more than 100 µM throughout.

For the molecule `CC[CH2][Sn]([Cl])([Cl])[CH2]CC.Oc1ccccc1C=NCCN=Cc1ccccc1O`, the GI50 in the test with 786-0 renal is 7910 nM; in the test on SN12C renal, 11300 nM; in the test on KM12 colon, 12700 nM; in the test with HOP-62 NSCLC, 12300 nM; in the test with MDA-MB-435, 7300 nM; in the test on HOP-92 NSCLC, 2090 nM. The GI50 with K-562 leukemia is 2530 nM; in the test with OVCAR-4 ovarian, 8.21 µM; in the test with SK-MEL-28 melanoma it was 8700 nM. The TGI in the test on 786-0 renal was 20.7 µM; in the test with SN12C renal, 23.8 µM; in the test on KM12 colon it was 25.9 µM; in the test on HOP-62 NSCLC, 25.4 µM; in the test with MDA-MB-435, 24.7 µM; in the test on HOP-92 NSCLC, 8.8 µM. Also, the results for the TGI with K-562 leukemia, in the test on OVCAR-4 ovarian and in the test with SK-MEL-28 melanoma were more than 100 µM, 21 µM and 21.6 µM, respectively.
